According to paper PMC12910498 (ACS pharmacology & translational science, 2026):
Read-outs that look alike come from different tables or passages of the source.

Assays:
[1] = Phase I metabolic stability in rat liver microsomes (with NADPH); type: in vitro ADME; details: pH 7.4, presence of NADPH, mean ± SD, n = 3
Protocol: (§1) We evaluated the Phase I metabolic stability of compounds 2−7 and 14−19 using rat and human liver microsomes, as previously described.[45]
(§2) Phase I metabolic stability assays were conducted using rat and human liver microsomes as previously described[45],[70] with minor modifications. In brief, the reactions were carried out with 100 mM potassium phosphate buffer, pH 7.4, in the presence of NADPH regenerating system (1.3 mM NADPH, 3.3 mM glucose 6-phosphate, 3.3 mM MgCl2, 0.4 U/mL glucose-6-phosphate dehydrogenase, 50 μM sodium citrate). Negative controls without cofactors were assessed to determine the non-CYP-mediated metabolism. Compound disappearance was monitored over time using a liquid chromatography and tandem mass spectrometry (LC/MS) method. All reactions were performed in triplicate.
(§3) Chromatographic analysis was performed on a Dionex ultra high-performance LC system coupled with Q Exactive Focus orbitrap mass spectrometer (Thermo Fisher Scientific Inc., Waltham MA). Separation was achieved using Agilent Eclipse Plus column (100 × 2.1 mm^2 i.d.; maintained at 35 °C) packed with a 1.8 μm C18 stationary phase. […] The total run time for each analyte was 6.5 min. Pumps were operated at a flow rate of 0.3 mL/min. The mass spectrometer controlled by Xcalibur software 4.0.27.13 (Thermo Scientific) was operated with a HESI ion source in positive ionization mode. Compounds were identified in the full-scan mode (from m/z 50 to 750) by comparing t = 0 samples with t = 30 min and t = 60 min samples.

[2] = Phase I metabolic stability in human liver microsomes (with NADPH); type: in vitro ADME; details: pH 7.4, presence of NADPH, mean ± SD, n = 3
Protocol: as §1, §2, §3

human D2R long isoform = human D2R long isoform (Homo sapiens, UniProt P14416); design: host or cells: CHO-K1; method as in PMID 30883109; details: antagonist mode; previously reported; cited from earlier work
human D3R [3] = biological target: T1, human D3R (Homo sapiens, UniProt P35462); design: expressed in transfected cells; host or cells: HEK293; method as in PMID 30883109; details: HEK293 membranes, hD3R; previously reported; read-out: Ki (nM) ± SEM [3H]N-methlyspiperone D3R; cited from earlier work
human D4R [4] = biological target: T2, human D4R (Homo sapiens, UniProt P21917); details: for D4R Ant. (%): antagonist mode, 10 μM forskolin and 10 nM dopamine, normalized to spiperone; for Emax: read-out: D4R Emax (%)
T2 sequence (P21917 1-419): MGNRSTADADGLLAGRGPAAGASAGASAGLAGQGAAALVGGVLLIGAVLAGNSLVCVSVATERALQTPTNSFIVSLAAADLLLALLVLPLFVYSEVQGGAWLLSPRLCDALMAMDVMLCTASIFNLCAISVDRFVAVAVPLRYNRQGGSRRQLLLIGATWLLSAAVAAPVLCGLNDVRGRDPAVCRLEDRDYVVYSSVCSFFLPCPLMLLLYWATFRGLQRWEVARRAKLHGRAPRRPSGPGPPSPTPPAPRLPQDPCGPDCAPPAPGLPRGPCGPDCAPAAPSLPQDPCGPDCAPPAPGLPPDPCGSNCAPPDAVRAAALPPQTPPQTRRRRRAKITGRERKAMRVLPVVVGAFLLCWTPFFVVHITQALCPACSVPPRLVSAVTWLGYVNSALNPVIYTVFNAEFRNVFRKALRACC

[5] = Non-Phase I metabolic stability in human liver microsomes (absence of NADPH); type: in vitro ADME
Protocol: We also evaluated the non-Phase I metabolic stability of compounds 2−7 and 14−19 using rat and human liver microsomes. […] This may represent metabolism by hydrolases that can specifically attack the amide. Evidence in support of this hypothesis is shown by the remarkable stability of all triazole analogs (14−19) in the absence of NADPH in Figure 5B,D.
as §2
Chromatographic analysis was performed on a Dionex ultra high-performance LC system coupled with Q Exactive Focus orbitrap mass spectrometer (Thermo Fisher Scientific Inc., Waltham MA). Separation was achieved using Agilent Eclipse Plus column (100 × 2.1 mm^2 i.d.; maintained at 35 °C) packed with a 1.8 μm C18 stationary phase. […] The total run time for each analyte was 6.5 min. […]

[6] = Aqueous solubility (remark); type: physicochemical; details: remark in text
human D4R [7] = biological target: T2, human D4R; design: host or cells: CHO-K1; method as in PMID 30883109; details: previously reported, cited from earlier work; for D4R Emax (%): agonist mode; for D4R Ant. (%): antagonist mode
[8] = Pharmacokinetics study in rats (plasma and brain); type: in vivo, Sprague−Dawley rats; details: rat, 5 mg/kg IP
Protocol: Given their adequate in vitro stability profiles, we next evaluated the in vivo pharmacokinetic profiles of 14, 15, 17, and 18 in rats. Sprague−Dawley rats were dosed with 5 mg/kg (14, 15, 17) or 10 mg/kg (18), i.p., and plasma and brain levels of each drug were measured 0−6 h postdose.
All animal experiments were performed following the protocols evaluated and approved by the Animal Care and Use Committee at Johns Hopkins University (Ethics Approval Number: RA24M403). Pharmacokinetic studies in Sprague−Dawley (SD) rats were conducted according to protocols approved. SD rats obtained from Harlan were maintained on a 12 h light−dark cycle with ad libitum access to food and water. Test compound was administered via i.p. injection at a dose of 10 mg/kg (100% saline vehicle, 10 mL/kg volume). The rats were sacrificed at specified time points (0.25, 0.5 h, 1, 2, 4, and 6 h) post drug administration. For the collection of plasma and brain tissue, animals were euthanized with CO2, and blood samples were collected in heparinized microtubes by cardiac puncture. Brains were dissected and immediately flash-frozen (−80 °C). Blood samples were spun at 2000g for 15 min, and plasma was removed and stored at −80 °C until analysis (as described below).
Quantitation of triazole analogs 14, 15, 17, and 18 was performed using liquid chromatography with tandem mass spectrometry (LC/MS-MS) methods. Briefly, calibration standards were prepared using respective tissue (naïve plasma and brain) with additions of the test compounds. For quantifying the test compounds in the pharmacokinetic samples, plasma samples (20 μL) were processed using a single liquid extraction method by addition of 100 μL of acetonitrile containing internal standard (losartan: 0.5 μM), followed by vortex-mixing for 30 s and then centrifugation at 10,000g for 10 min at 4 °C. Brain tissues were diluted 1:5 w/v with acetonitrile containing losartan (0.5 μm) and homogenized, followed by vortex-mixing and centrifugation at 10,000g for 10 min at 4 °C. A 50 μL aliquot of the supernatant was diluted with 50 μL of water and transferred to 250 μL polypropylene autosampler vials sealed with Teflon caps. Two μL of the sample was injected into the LC/MS/MS system for analysis. Chromatographic analysis was performed using an Accela ultra high-performance system consisting of an analytical pump and an autosampler coupled with a TSQ Vantage mass spectrometer. […] The mobile phase consisted of 0.1% formic acid in acetonitrile and 0.1% formic acid in water with gradient elution, starting with 10% organic phase (from 0 to 1 min) linearly increasing to 95% (from 1 to 2 min), and re-equilibrating to 10% by 3 min. The total run time for each analyte was 3.5 min. Pumps were operated at a flow rate of 0.4 mL/min. […] Plasma concentrations (nmol/mL) as well as brain tissue concentrations (nmol/g) were determined and plots of mean plasma concentration versus time were constructed. Noncompartmental analysis modules in Phoenix WinNonlin version 7.0 (Certara USA, Inc., Princeton, NJ) were used to quantify exposures (AUC0−t) and half-life (t1/2).

D1 = biological target: T3, D1 (Homo sapiens, UniProt P21728); assay: PDSP primary screen and secondary assay, D1; type: binding; details: 10 µM compound
T3 construct: Psychoactive Drug Screening Program (PDSP)
Text: (§4) Receptor Primary Secondary Primary Secondary Primary Secondary Primary Secondary screen assay screen assay screen assay screen assay […]
(§5) inhibition in primary assessment.

D5 = biological target: T4, D5 (Homo sapiens, UniProt P21918); assay: PDSP primary screen, D5; type: binding; details: 10 µM compound
T4 construct: Psychoactive Drug Screening Program (PDSP)
Text: as §4, §5

human D2LR = human D2LR (Homo sapiens, UniProt P14416); assay: biochemical
human D3R [9] = biological target: T1, human D3R; assay: biochemical
human D4R [10] = biological target: T2, human D4R; assay: DiscoverX PathHunter β-arrestin recruitment assay, D4R
human D4R [11] = biological target: T2, human D4R; assay: [3H]N-methylspiperone radioligand competition binding, hD4R membranes
human D3R [12] = biological target: T1, human D3R; design: host or cells: CHO-K1; method as in PMID 30883109; details: previously reported, cited from earlier work; for D3R Emax (%): agonist mode

T1 sequence (P35462 whole entry): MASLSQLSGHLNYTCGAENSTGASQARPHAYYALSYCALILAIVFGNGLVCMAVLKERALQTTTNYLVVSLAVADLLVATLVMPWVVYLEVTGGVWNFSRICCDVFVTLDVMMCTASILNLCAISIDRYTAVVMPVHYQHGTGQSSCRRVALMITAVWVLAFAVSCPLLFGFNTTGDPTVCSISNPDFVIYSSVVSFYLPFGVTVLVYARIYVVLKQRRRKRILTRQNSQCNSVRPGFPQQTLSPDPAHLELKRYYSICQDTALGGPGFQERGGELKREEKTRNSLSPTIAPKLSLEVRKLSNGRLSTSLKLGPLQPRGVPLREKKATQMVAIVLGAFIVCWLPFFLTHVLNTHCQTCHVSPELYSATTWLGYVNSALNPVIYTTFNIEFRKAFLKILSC
Chain of human D2R long isoform (P14416 whole entry, canonical isoform): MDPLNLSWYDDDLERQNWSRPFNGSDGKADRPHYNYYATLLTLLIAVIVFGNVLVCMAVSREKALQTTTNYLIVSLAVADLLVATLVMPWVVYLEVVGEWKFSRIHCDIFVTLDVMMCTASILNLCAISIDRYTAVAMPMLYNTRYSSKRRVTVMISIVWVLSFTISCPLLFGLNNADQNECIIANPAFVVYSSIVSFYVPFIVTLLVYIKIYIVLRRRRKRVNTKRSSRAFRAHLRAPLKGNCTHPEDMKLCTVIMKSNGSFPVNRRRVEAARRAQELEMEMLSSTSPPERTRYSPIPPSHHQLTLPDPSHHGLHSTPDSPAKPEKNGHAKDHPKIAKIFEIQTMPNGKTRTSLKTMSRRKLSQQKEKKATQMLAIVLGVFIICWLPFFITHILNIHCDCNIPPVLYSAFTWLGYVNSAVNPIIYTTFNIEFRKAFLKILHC
T4 sequence (P21918 whole entry): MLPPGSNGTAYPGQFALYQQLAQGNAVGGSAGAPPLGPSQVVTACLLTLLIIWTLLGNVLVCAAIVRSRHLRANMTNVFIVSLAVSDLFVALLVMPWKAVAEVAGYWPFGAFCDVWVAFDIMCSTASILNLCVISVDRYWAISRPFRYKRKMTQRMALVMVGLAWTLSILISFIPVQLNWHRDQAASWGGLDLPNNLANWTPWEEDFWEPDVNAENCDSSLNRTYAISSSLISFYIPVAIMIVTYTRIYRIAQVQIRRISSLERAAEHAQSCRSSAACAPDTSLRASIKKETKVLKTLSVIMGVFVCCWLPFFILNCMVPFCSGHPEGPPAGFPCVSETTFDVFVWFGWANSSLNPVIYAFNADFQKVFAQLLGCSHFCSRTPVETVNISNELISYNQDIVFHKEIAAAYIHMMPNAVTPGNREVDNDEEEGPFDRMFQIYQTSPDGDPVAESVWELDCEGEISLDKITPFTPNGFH
Chain of human D2LR (P14416 whole entry): as the sequence (P14416 whole entry, canonical isoform) above
T3 sequence (P21728 whole entry): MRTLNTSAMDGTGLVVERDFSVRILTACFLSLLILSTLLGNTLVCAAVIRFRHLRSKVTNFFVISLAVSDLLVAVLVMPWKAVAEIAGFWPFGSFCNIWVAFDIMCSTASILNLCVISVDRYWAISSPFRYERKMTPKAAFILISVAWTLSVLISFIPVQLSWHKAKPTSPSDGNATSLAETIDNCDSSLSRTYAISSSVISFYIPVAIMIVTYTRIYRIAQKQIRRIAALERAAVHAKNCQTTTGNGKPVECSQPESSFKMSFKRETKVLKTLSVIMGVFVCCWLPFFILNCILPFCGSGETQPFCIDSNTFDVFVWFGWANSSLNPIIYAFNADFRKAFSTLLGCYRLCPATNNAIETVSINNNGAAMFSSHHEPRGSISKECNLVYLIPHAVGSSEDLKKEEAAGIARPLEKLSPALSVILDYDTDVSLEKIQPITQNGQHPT

Row | Structure (SMILES) | half-life [1] [min] | half-life [2] [min] | D2R Ant (%) (human D2R long isoform) | Ki (human D3R [3]) [nM] | IC50 (human D4R [4]) [nM] | D4R Ant. (%) (human D4R [4]; cAMP) | non-Phase I metabolic stability [5] | D4R Emax (%) (human D4R [7]) | D4R Ant. (%) (human D4R [7]) | D3R Emax (%) (human D3R [12]) | IC50 (human D3R [12]; antagonist mode) [nM] | EC50 (human D4R [4]) [nM] | Emax (human D4R [4]) [%] | other results
1 | Cc1cccc(NC(=O)CN2CCN(c3ccc(Cl)cn3)CC2)c1 [Compound 7] | 9.51 ± 0.12 | 74.2 ± 4.56 | 100 ± 0 | > 50000 | 2870 ± 817 | 110 ± 7 | – | – | – | – | – | – | – | –
2 | Cc1cccc(NC(=O)CN2CCN(c3cccc4ccccc34)CC2)c1 [Compound 6] | 10.5 ± 0.03 | 16.6 ± 0.17 | 100 ± 0 | – | > 50000 | 91 ± 7 | relatively little non-Phase I metabolism | 16.4 ± 3.9 | 96.7 ± 2.7 | – | – | – | – | aqueous solubility [6]: poor aqueous solubility; D4R average activity at the highest tested dose (human D4R [4]; cAMP, agonist mode, at 33 μM (Emax ND)): ND (16% at 33 μM)
3 | Cc1cccc(-n2cc(CN3CCN(c4ccc(Cl)cn4)CC3)nn2)c1 [Compound 17, 1-(5-Chloropyridin-2-yl)-4-((1-(m-tolyl)-1H-1,2,3-triazol-4-yl)methyl)piperazine] | 64.8 ± 2.12 | 46.8 ± 6.69 | – | – | 134 ± 36.4 | 85 ± 1 | – | – | – | – | – | – | – | Kp ([8]; Sprague-Dawley, brain and plasma, ip, 5 mg/kg, AUC brain/plasma, read-out: brain: Plasma ratio): 0.3; half-life ([8]; Sprague-Dawley, brain, ip, 5 mg/kg, brain, read-out: half-life (h) brain (converted)): 2.36 h; half-life ([8]; Sprague-Dawley, plasma and brain, ip, 5 mg/kg, tissue not specified, read-out: half-life (converted)): ≥ 2.1 h; half-life ([8]; Sprague-Dawley, plasma, ip, 5 mg/kg, plasma, read-out: half-life (h) plasma (converted)): 2.1 h; Tmax ([8]; Sprague-Dawley, brain, read-out: Tmax (h) brain): 0.25 h; AUC ([8]; Sprague-Dawley, plasma): 15.1 ± 1.83 µM·h; Cmax ([8]; Sprague-Dawley, plasma): 10 ± 1.27 µM; Tmax ([8]; Sprague-Dawley, plasma, read-out: Tmax (h) plasma): 0.25 h; AUC brain ([8]; brain): 4.57 ± 0.50 nmol·h/g; Cmax brain ([8]; brain): 3.04 ± 0.45 nmol/g; peak in vivo brain concentrations expected ([8]; from brain Cmax): greater than 3.0 μM; inhibition at 10 µM (D1): 16.7%; inhibition at 10 µM (D5): 6.22%; Ki (human D2LR): > 100000 nM; Ki (human D3R [9]): > 100000 nM; IC50 (human D4R [10]): 3800 ± 720 nM; D4R Ant. (%) (human D4R [10]; antagonist mode, EC80 dopamine (1 μM), normalized to spiperone): 91.6 ± 4.7%; Ki (human D4R [11]): 77.7 ± 19.9 nM; Selectivity D2R/D4R (human D4R [11]; ratio of Ki values): >1287; Selectivity D3R/D4R (human D4R [11]; ratio of Ki values): >1287
4 | Cc1cccc(NC(=O)CN2CCN(c3ncccn3)CC2)c1 [Compound 4] | 26.83 ± 0.21 | 39.8 ± 2.16 | – | > 10000 | – | 29 ± 5 | – | 24.7 ± 5 | 80.6 ± 3.0 | 58.4 ± 6.6 | > 100000 | 7.93 ± 2.12 | 60 ± 4 | –
5 | CCc1cccc(NC(=O)CN2CCN(c3ccccn3)CC2)c1 [Compound 3] | 20.8 ± 1.99 | 249 ± 66.5 | – | – | 267 ± 115 | 30 ± 1 | nonexistent | 26.2 ± 5.1 | 59.7 ± 4.6 | 44.7 ± 5.9 | – | 5.38 ± 1.08 | 59 ± 4 | D3R Ant. (%) (human D3R [12]; antagonist mode): 100 ± 0%
6 | Cc1cccc(NC(=O)CN2CCN(c3ccccn3)CC2)c1 [Compound 2] | 9.92 ± 0.18 | 67 ± 2.41 | – | > 10000 | – | 16 ± 1 | – | 30.7 ± 6.4 | 78.9 ± 3.1 | 49.4 ± 2.0 | > 100000 | 2.92 ± 0.15 | 65 ± 3 | –
